Like-named read-outs stand apart in the source and are kept apart here.
Columns and labels:
A375 = assay: CellTiter-Glo proliferation and viability assay; type: cell-based; conditions: Homo sapiens
LN 18 = assay: CellTiter-Glo proliferation and viability assay; type: cell-based; conditions: Homo sapiens
SK-Mel-5 = assay: CellTiter-Glo proliferation and viability assay; type: cell-based; conditions: Homo sapiens
NCI-H838 = assay: CellTiter-Glo proliferation and viability assay; type: cell-based; conditions: Homo sapiens
Sk-MeI-2 cells = assay: CellTiter-Blue SK-MeI-2 cell proliferation assay; type: cell-based; conditions: Homo sapiens; SK-Mel-2, CellTiter-Blue; read-out: Cell Proliferation Inhibition IC50
Procedure: (§1) Sk-MeI-2 cells (catalog #HTB-68) are obtained from the American Type Culture Collection (ATCC, Manassas, Va.). Briefly, cells are grown in MEM supplemented with 10% characterized fetal bovine serum (Invitrogen, Carlsbad, Calif.), 1 mM sodium pyruvate, 0.1 mM non-essential amino acids, and 1% Penicillin/Streptomycin/L-Glutamine at 37 degrees Celsius, 5% CO2, and 95% humidity. Cells are allowed to expand until reaching 70-95% confluency at which point they are subcultured or harvested for assay use. A serial dilution of test compound is dispensed into a 384-well black clear bottom plate in triplicate. One thousand two-hundred fifty cells are added per well in 50 μL complete growth medium in the 384-well plate. Plates are incubated for 67 hours at 37 degrees Celsius, 5% CO2, and 95% humidity. At the end of the incubation period, 10 μL of a 440 μM solution of resazurin (Sigma, St. Louis, Mo.) in PBS is added to each well of the plate and plates are incubated for an additional 5 hours at 37 degrees Celsius, 5% CO2, and 95% humidity. Plates are read on a Synergy2 reader (Biotek, Winooski, Vt.) using an excitation of 540 nm and an emission of 600 nm. Data is analyzed using Prism software (Graphpad, San Diego, Calif.) to calculate IC50 values.
(§2) The A375, HT-29, and Colo-205 cells (ATCC) harbor a V600E mutation.

IM-9 = assay: CellTiter-Glo proliferation and viability assay; type: cell-based; conditions: Homo sapiens, read-out: Abs IC50
SK-HEP-1 = assay: CellTiter-Glo proliferation and viability assay; type: cell-based; conditions: Homo sapiens, SK-HEP1, read-out: Abs IC50
NCI-H2052 = assay: CellTiter-Glo proliferation and viability assay; type: cell-based; conditions: Homo sapiens
Colo-205 = assay: CellTiter-Glo proliferation and viability assay; type: cell-based; conditions: Homo sapiens, Colo-205, B-Raf V600E, colon
Text: (§3) B-Raf mutations, particularly B-Raf V600E in human cancer are often observed in human malignancies including melanoma, colorectal, lung, and ovarian cancers. This mutation in B-Raf may lead to constitutive kinase activity and malignant transformation.

WM-266-4 = assay: CellTiter-Glo proliferation and viability assay; type: cell-based; conditions: Homo sapiens, WM-266-4, B-Raf V600E, melanoma
Text: as §3

A2780 = assay: CellTiter-Glo proliferation and viability assay; type: cell-based; conditions: Homo sapiens
MKN45 = assay: CellTiter-Glo proliferation and viability assay; type: cell-based; conditions: Homo sapiens
HCT-116 = assay: CellTiter-Glo proliferation and viability assay; conditions: Homo sapiens
HCT-116 cells = assay: CellTiter-Blue HCT-116 cell proliferation assay; type: cell-based; conditions: Homo sapiens; HCT-116, CellTiter-Blue; read-out: Cell Proliferation Inhibition IC50
Procedure: as §1, with “HCT-116” for “Sk-MeI-2”, “#CCL-247)” for “#HTB-68)”, “McCoy's 5A” for “MEM”, “Calif.),” for “Calif.), 1 mM sodium pyruvate, 0.1 mM non-essential amino acids,”, “75-90%” for “70-95%”, “Six hundred twenty-five” for “One thousand two-hundred fifty”
as §2

MOLT-4 = assay: CellTiter-Glo proliferation and viability assay; type: cell-based; conditions: Homo sapiens
LOUCY = assay: CellTiter-Glo proliferation and viability assay; type: cell-based; conditions: Homo sapiens, read-out: Abs IC50
U-266 = assay: CellTiter-Glo proliferation and viability assay; type: cell-based; conditions: Homo sapiens, read-out: Abs IC50
786-0 = assay: CellTiter-Glo proliferation and viability assay; type: cell-based; conditions: Homo sapiens
NCI-H1993 = assay: CellTiter-Glo proliferation and viability assay; type: cell-based; conditions: Homo sapiens
LNCaP-Clone-FGC = assay: CellTiter-Glo proliferation and viability assay; type: cell-based; conditions: Homo sapiens
A375res cells = assay: CellTiter-Glo proliferation and viability assay in vemurafenib-resistant cells; type: cell-based, human; conditions: Homo sapiens, A375res cells
NCI-H661 = assay: CellTiter-Glo proliferation and viability assay; type: cell-based; conditions: Homo sapiens
BT-474 = assay: CellTiter-Glo proliferation and viability assay; type: cell-based; conditions: Homo sapiens
NCI-H1155 = assay: CellTiter-Glo proliferation and viability assay; type: cell-based; conditions: Homo sapiens
COLO-829 = assay: CellTiter-Glo proliferation and viability assay; type: cell-based; conditions: Homo sapiens

CNc1ncc2cc(-c3cc(NC(=O)NCCC(C)(C)C)c(F)cc3C)c(C)nc2n1 [Example 1, 1-(3,3-Dimethylbutyl)-3-(2-fluoro-4-methyl-5-(7-methyl-2-(methylamino)pyrido[2,3-d]pyrimidin-6-yl)phenyl)urea]
IC50 (A375; A-375, A375, B-Raf V600E, melanoma): 9.2 nM
IC50 (A375; A-375, parental A375 B-Raf V600E cells, comparison with A375res): 11 nM
IC50 (LN 18; read-out: Abs IC50): > 20 nM
IC50 (LN 18; read-out: Rel IC50): > 20 nM
IC50 (SK-Mel-5; read-out: Abs IC50): 0.13 nM
IC50 (SK-Mel-5; read-out: Rel IC50): 0.06 nM
IC50 (NCI-H838; read-out: Abs IC50): 13.4 nM
IC50 (NCI-H838; read-out: Rel IC50): 6.97 nM
IC50 (Sk-MeI-2 cells): 158 nM
IC50 (IM-9): 0.38 nM
IC50 (SK-HEP-1): 1.96 nM
IC50 (NCI-H2052; read-out: Abs IC50): 1.27 nM
IC50 (NCI-H2052; read-out: Rel IC50): 0.33 nM
IC50 (Colo-205): 27 nM
IC50 (WM-266-4): 52.9 nM
IC50 (A2780; read-out: Abs IC50): 0.81 nM
IC50 (A2780; read-out: Rel IC50): 0.2 nM
IC50 (MKN45; MKN-45, read-out: Abs IC50): 5.72 nM
IC50 (MKN45; MKN-45, read-out: Rel IC50): 0.87 nM
IC50 (HCT-116; HCT-116, read-out: Abs IC50): 0.72 nM
IC50 (HCT-116; HCT-116, read-out: proliferation and viability IC50): 178 nM
IC50 (HCT-116 cells): 224 nM
IC50 (MOLT-4; read-out: Abs IC50): > 20 nM
IC50 (MOLT-4; read-out: Rel IC50): 1.21 nM
IC50 (LOUCY): 6.93 nM
IC50 (U-266): 1.1 nM
IC50 (786-0; read-out: Abs IC50): > 20 nM
IC50 (786-0; read-out: Rel IC50): 4.58 nM
IC50 (NCI-H1993; read-out: Abs IC50): 0.17 nM
IC50 (NCI-H1993; read-out: Rel IC50): 0.09 nM
IC50 (LNCaP-Clone-FGC; read-out: Abs IC50): > 20 nM
IC50 (LNCaP-Clone-FGC; read-out: Rel IC50): 2.74 nM
IC50 (A375res cells): 34 nM
IC50 (NCI-H661; read-out: Abs IC50): > 20 nM
IC50 (NCI-H661; read-out: Rel IC50): 12.6 nM
IC50 (BT-474; read-out: Abs IC50): 11.6 nM
IC50 (BT-474; read-out: Rel IC50): 10.9 nM
IC50 (NCI-H1155; read-out: Abs IC50): > 20 nM
IC50 (NCI-H1155; read-out: Rel IC50): 0.47 nM
IC50 (COLO-829; read-out: Abs IC50): 0.05 nM
IC50 (COLO-829; read-out: Rel IC50): 0.04 nM

Reference: patent publication US8741911B2, “Raf inhibitor compounds” (Eli Lilly and Company, priority 2012, dated 2014)
